Results as given in ChEMBL document CHEMBL1201861, “Genomics of Drug Sensitity in Cancer screening data, Wellcome Trust Sanger Institute”.

Columns and labels:
HT55 = test: cells; assay type: functional, cell-based; details: Homo sapiens;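 further: cell viability readout measuring growth inhibition of human HT55 cells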
Description: SANGER: Inhibition of human HT55 cell growth in a cell viability assay.

BL-41 = test: cells; assay type: functional, cell-based; details: Homo sapiens;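 further: growth inhibition of human BL-41 cells, read out with a cell viability assay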
Description: SANGER: Inhibition of human BL-41 cell growth in a cell viability assay.

REH = test: cells; assay type: functional, cell-based, Homo sapiens; details: Homo sapiens, REH;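 further: growth inhibition of REH cells determined with a cell viability read-out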
Description: SANGER: Inhibition of human REH cell growth in a cell viability assay.

SK-MEL-28 = test: cells; assay type: functional, cell-based; details: Homo sapiens;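 further: growth inhibition of human SK-MEL-28 cells, read out with a cell viability assay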
Description: SANGER: Inhibition of human SK-MEL-28 cell growth in a cell viability assay.

HCC1806 = test: cells; assay type: functional, cell-based; details: Homo sapiens;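 further: growth inhibition of the cancer cell line, determined with a cell viability assay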
Description: SANGER: Inhibition of human HCC1806 cell growth in a cell viability assay.

CAL-12T = test: cells; assay type: functional, cell-based; details: Homo sapiens;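 further: growth inhibition of human CAL-12T cells, read out with a cell viability assay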
Description: SANGER: Inhibition of human CAL-12T cell growth in a cell viability assay.

NUGC-3 = test: cells; assay type: functional, cell-based; details: Homo sapiens;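 further: growth inhibition of human NUGC-3 cells, read out with a cell viability assay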
Description: SANGER: Inhibition of human NUGC-3 cell growth in a cell viability assay.

HTC-C3 = test: cells; assay type: functional, cell-based; details: Homo sapiens;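 further: inhibition of cell growth, read out with a cell viability assay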
Description: SANGER: Inhibition of human HTC-C3 cell growth in a cell viability assay.

T98G = test: cells; assay type: functional, cell-based; details: Homo sapiens;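 further: growth inhibition of T98G cells, read out by a cell viability assay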
Description: SANGER: Inhibition of human T98G cell growth in a cell viability assay.

IMR-5 = test: cells; assay type: functional, cell-based, Homo sapiens; details: Homo sapiens, IMR-5; read-out: IC50;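 further: growth inhibition of human IMR-5 cells, read out with a cell viability assay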
Description: SANGER: Inhibition of human IMR-5 cell growth in a cell viability assay.

NCI-H1563 = test: cells; assay type: functional, cell-based; details: Homo sapiens;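 further: growth inhibition of human NCI-H1563 cells, read out with a cell viability assay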
Description: SANGER: Inhibition of human NCI-H1563 cell growth in a cell viability assay.

BHY = test: cells; assay type: functional, cell-based; details: Homo sapiens;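 further: cell growth inhibition read out by a viability assay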
Description: SANGER: Inhibition of human BHY cell growth in a cell viability assay.

NCI-H460 = test: cells; assay type: functional, cell-based; details: Homo sapiens;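 further: cell viability assay scoring growth inhibition of human NCI-H460 cells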
Description: SANGER: Inhibition of human NCI-H460 cell growth in a cell viability assay.

GP5d = test: cells; assay type: functional, cell-based; details: Homo sapiens;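 further: growth inhibition of human GP5d cells, read out with a cell viability assay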
Description: SANGER: Inhibition of human GP5d cell growth in a cell viability assay.

RPMI-2650 = test: cells; assay type: functional, cell-based; details: Homo sapiens
Description: SANGER: Inhibition of human RPMI-2650 cell growth in a cell viability assay.

KP-N-YN = test: cells; assay type: functional, cell-based; details: Homo sapiens;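 further: growth inhibition of KP-N-YN cells, read out with a cell viability assay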
Description: SANGER: Inhibition of human KP-N-YN cell growth in a cell viability assay.

TCC-SUP = test: cells; assay type: functional, cell-based; details: Homo sapiens;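 further: growth inhibition of TCC-SUP cells, read out with a cell viability assay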
Description: SANGER: Inhibition of human TCCSUP cell growth in a cell viability assay.

LCLC-103H cell line = test: cells; assay type: functional, cell-based; details: Homo sapiens
Description: SANGER: Inhibition of human LCLC-103H cell growth in a cell viability assay.

NCI-H510A = test: cells; assay type: functional, cell-based, Homo sapiens; details: Homo sapiens, NCI-H510A;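 further: growth inhibition of NCI-H510A cells, read out with a cell viability assay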
Description: SANGER: Inhibition of human NCI-H510A cell growth in a cell viability assay.

BT-20 = test: cells; assay type: functional, cell-based; details: Homo sapiens;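 further: cell viability assay measuring suppression of growth in human BT-20 cells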
Description: SANGER: Inhibition of human BT-20 cell growth in a cell viability assay.

AGS = test: cells; assay type: functional, cell-based; details: Homo sapiens;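 further: growth inhibition of AGS cells, determined with a cell viability assay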
Description: SANGER: Inhibition of human AGS cell growth in a cell viability assay.

VMRC-RCZ = test: cells; assay type: functional, cell-based; details: Homo sapiens
Description: SANGER: Inhibition of human VMRC-RCZ cell growth in a cell viability assay.

MEL-HO = test: cells; assay type: functional, cell-based; details: Homo sapiens
Description: SANGER: Inhibition of human MEL-HO cell growth in a cell viability assay.

CMK = test: cells; assay type: functional, cell-based, Homo sapiens; details: Homo sapiens, CMK;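 further: growth inhibition of CMK cells, read out as cell viability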
Description: SANGER: Inhibition of human CMK cell growth in a cell viability assay.

NCI-H1993 = test: cells; assay type: functional, cell-based; details: Homo sapiens;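 further: growth inhibition of the cancer cell line, assessed with a cell viability assay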
Description: SANGER: Inhibition of human NCI-H1993 cell growth in a cell viability assay.

MEL-JUSO = test: cells; assay type: functional, cell-based; details: Homo sapiens;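 further: growth inhibition of human MEL-JUSO cells, read out with a cell viability assay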
Description: SANGER: Inhibition of human MEL-JUSO cell growth in a cell viability assay.

PC-14 = test: cells; assay type: functional, cell-based; details: Homo sapiens;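 further: cell viability assay measuring inhibition of PC-14 cell growth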
Description: SANGER: Inhibition of human PC-14 cell growth in a cell viability assay.

HEC-1 = test: cells; assay type: functional, cell-based; details: Homo sapiens;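 further: growth inhibition of the cell line, read out with a cell viability assay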
Description: SANGER: Inhibition of human HEC-1 cell growth in a cell viability assay.

HCC38 = test: cells; assay type: functional, cell-based; details: Homo sapiens;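 further: cell viability assay on the human HCC38 cell line, with IC50 marking the concentration that inhibits cell growth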
Description: SANGER: Inhibition of human HCC38 cell growth in a cell viability assay.

IM-9 = test: SANGER: Inhibition of human IM-9 cell growth in a cell viability assay.; assay type: functional, cell-based; details: Homo sapiens, IM-9
Hs-578T = test: cells; assay type: functional, cell-based; details: Homo sapiens
Description: SANGER: Inhibition of human Hs-578-T cell growth in a cell viability assay.

NCI-H727 = test: cells; assay type: functional, cell-based; details: Homo sapiens;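 further: growth inhibition of human NCI-H727 cells, read out with a cell viability assay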
Description: SANGER: Inhibition of human NCI-H727 cell growth in a cell viability assay.

MG-63 = test: cells; assay type: functional, cell-based; details: Homo sapiens;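 further: growth inhibition of human MG-63 cells, read out with a cell viability assay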
Description: SANGER: Inhibition of human MG-63 cell growth in a cell viability assay.

MDA-MB-361 = test: cells; assay type: functional, cell-based; details: Homo sapiens
EC-GI-10 = test: cells; assay type: functional, cell-based, Homo sapiens; details: Homo sapiens, EC-GI-10
Description: SANGER: Inhibition of human EC-GI-10 cell growth in a cell viability assay.

PANC-08-13 = test: cells; assay type: functional, cell-based; details: Homo sapiens
Description: SANGER: Inhibition of human PANC-08-13 cell growth in a cell viability assay.

KYSE-70 cell line = test: cells; assay type: functional, cell-based; details: Homo sapiens;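 further: cell viability assay read-out, with IC50 expressing suppression of KYSE-70 cell growth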
Description: SANGER: Inhibition of human KYSE-70 cell growth in a cell viability assay.

Ca9-22 = test: cells; assay type: functional, cell-based; details: Homo sapiens;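 further: growth inhibition of Ca9-22 cells, read out with a cell viability assay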
Description: SANGER: Inhibition of human Ca9-22 cell growth in a cell viability assay.

G-401 = test: cells; assay type: functional, cell-based; details: Homo sapiens
Description: SANGER: Inhibition of human G-401 cell growth in a cell viability assay.

NY = test: cells; assay type: functional, cell-based; details: Homo sapiens
Description: SANGER: Inhibition of human NY cell growth in a cell viability assay.

M059J = test: cells; assay type: functional, cell-based; details: Homo sapiens;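 further: growth inhibition of M059J cells, read out with a cell viability assay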
Description: SANGER: Inhibition of human M059J cell growth in a cell viability assay.

DG-75 = test: cells; assay type: functional, cell-based, Homo sapiens; details: Homo sapiens, DG-75;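 further: growth inhibition of DG-75 cells, read out with a cell viability assay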
Description: SANGER: Inhibition of human DG-75 cell growth in a cell viability assay.

HPAF-II = test: cells; assay type: functional, cell-based; details: Homo sapiens;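 further: growth inhibition of HPAF-II cells, read out with a cell viability assay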
Description: SANGER: Inhibition of human HPAF-II cell growth in a cell viability assay.

HT-3 = test: cells; assay type: functional, cell-based; details: Homo sapiens;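 further: growth inhibition measured with a cell viability readout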
Description: SANGER: Inhibition of human HT-3 cell growth in a cell viability assay.

HCC70 = test: cells; assay type: functional, cell-based; details: Homo sapiens;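 further: cell viability assay measuring how strongly the compound suppresses proliferation of HCC70 cells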
Description: SANGER: Inhibition of human HCC70 cell growth in a cell viability assay.

GAMG = test: cells; assay type: functional, cell-based; details: Homo sapiens;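 further: cell growth inhibition measured by a viability assay in the GAMG human cell line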
Description: SANGER: Inhibition of human GAMG cell growth in a cell viability assay.

MeWo = test: cells; assay type: functional, cell-based; details: Homo sapiens;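 further: growth inhibition of MeWo cells, determined by a cell viability readout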
Description: SANGER: Inhibition of human Mewo cell growth in a cell viability assay.

NCI-H524 = test: cells; assay type: functional, cell-based, Homo sapiens; details: Homo sapiens, NCI-H524;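 further: growth inhibition of human NCI-H524 cells, read out through a cell viability assay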
Description: SANGER: Inhibition of human NCI-H524 cell growth in a cell viability assay.

JEG-3 = test: cells; assay type: functional, cell-based; details: Homo sapiens;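 further: growth inhibition of human JEG-3 cells, read out with a cell viability assay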
Description: SANGER: Inhibition of human JEG-3 cell growth in a cell viability assay.

MDA-MB-134-VI = test: cells; assay type: functional, cell-based, Homo sapiens; details: Homo sapiens, MDA-MB-134-VI
Description: SANGER: Inhibition of human MDA-MB-134-VI cell growth in a cell viability assay.

G-402 = test: cells; assay type: functional, cell-based; details: Homo sapiens
Description: SANGER: Inhibition of human G-402 cell growth in a cell viability assay.

NCI-H522 = test: cells; assay type: functional, cell-based; details: Homo sapiens;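 further: cell viability assay measuring growth inhibition of human NCI-H522 cells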
Description: SANGER: Inhibition of human NCI-H522 cell growth in a cell viability assay.

SW626 = test: cells; assay type: functional, cell-based; details: Homo sapiens;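 further: growth inhibition of SW626 cells, measured with a cell viability assay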
Description: SANGER: Inhibition of human SW626 cell growth in a cell viability assay.

SAS = test: cells; assay type: functional, cell-based; details: Homo sapiens;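 further: growth inhibition of SAS cells, read out with a cell viability assay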
Description: SANGER: Inhibition of human SAS cell growth in a cell viability assay.

LC4-1 = test: cells; assay type: functional, cell-based, Homo sapiens; details: Homo sapiens, LC4-1;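 further: growth inhibition of LC4-1 cells, read out with a cell viability assay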
Description: SANGER: Inhibition of human LC4-1 cell growth in a cell viability assay.

SW-620 = test: cells; assay type: functional, cell-based; details: Homo sapiens;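 further: growth inhibition of human SW-620 cells, measured by a cell viability assay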
Description: SANGER: Inhibition of human SW620 cell growth in a cell viability assay.

EGI-1 = test: cells; assay type: functional, cell-based; details: Homo sapiens;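 further: cell viability readout used to gauge growth inhibition of EGI-1 cells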
Description: SANGER: Inhibition of human EGI-1 cell growth in a cell viability assay.

MKN-28 = test: cells; assay type: functional, cell-based; details: Homo sapiens;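 further: cell viability assay read-out, IC50 reflects suppression of growth of human MKN-28 cells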
Description: SANGER: Inhibition of human MKN28 cell growth in a cell viability assay.

LK-2 = test: cells; assay type: functional, cell-based; details: Homo sapiens;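 further: growth inhibition of LK-2 cells, read out with a viability assay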
Description: SANGER: Inhibition of human LK-2 cell growth in a cell viability assay.

SNU-423 = test: cells; assay type: functional, cell-based; details: Homo sapiens
Description: SANGER: Inhibition of human SNU-423 cell growth in a cell viability assay.

C/C(=C\c1csc(C)n1)[C@@H]1C[C@@H]2O[C@]2(C)CCC[C@H](C)[C@H](O)[C@@H](C)C(=O)C(C)(C)[C@@H](O)CC(=O)O1 [PATUPILONE]
IC50 (HT55): > 32 nM
IC50 (BL-41): 1.35 nM
IC50 (REH): 1.76 nM
IC50 (SK-MEL-28): > 32 nM
IC50 (HCC1806): 1.38 nM
IC50 (CAL-12T): 0.239 nM
IC50 (NUGC-3): 1.16 nM
IC50 (HTC-C3): 2.94 nM
IC50 (T98G): 20 nM
IC50 (IMR-5): 9.51 nM
IC50 (NCI-H1563): > 32 nM
IC50 (BHY): 0.195 nM
IC50 (NCI-H460): 0.333 nM
IC50 (GP5d): 3.09 nM
IC50 (RPMI-2650): 2.08 nM
IC50 (KP-N-YN): > 32 nM
IC50 (TCC-SUP): 4.5 nM
IC50 (LCLC-103H cell line): 0.31 nM
IC50 (NCI-H510A): 11.9 nM
IC50 (BT-20): 5.1 nM
IC50 (AGS): 2.58 nM
IC50 (VMRC-RCZ): 0.136 nM
IC50 (MEL-HO): 1.69 nM
IC50 (CMK): 1.33 nM
IC50 (NCI-H1993): > 32 nM
IC50 (MEL-JUSO): 0.928 nM
IC50 (PC-14): 4.21 nM
IC50 (HEC-1): 9.09 nM
IC50 (HCC38): 3.83 nM
IC50 (IM-9): > 32 nM
IC50 (Hs-578T): > 32 nM
IC50 (NCI-H727): 1.8 nM
IC50 (MG-63): 0.165 nM
IC50 (MDA-MB-361): 16.5 nM
IC50 (EC-GI-10): > 32 nM
IC50 (PANC-08-13): 31.1 nM
IC50 (KYSE-70 cell line): 7.58 nM
IC50 (Ca9-22): 1.13 nM
IC50 (G-401): 1.51 nM
IC50 (NY): 1.56 nM
IC50 (M059J): 1.34 nM
IC50 (DG-75): > 32 nM
IC50 (HPAF-II): 21 nM
IC50 (HT-3): 15 nM
IC50 (HCC70): 4.79 nM
IC50 (GAMG): 1.78 nM
IC50 (MeWo): > 32 nM
IC50 (NCI-H524): 23.1 nM
IC50 (JEG-3): 5.01 nM
IC50 (MDA-MB-134-VI): > 32 nM
IC50 (G-402): 5.27 nM
IC50 (NCI-H522): 0.635 nM
IC50 (SW626): 1.98 nM
IC50 (SAS): > 32 nM
IC50 (LC4-1): 12.8 nM
IC50 (SW-620): 0.648 nM
IC50 (EGI-1): > 32 nM
IC50 (MKN-28): 0.462 nM
IC50 (LK-2): 4.86 nM
IC50 (SNU-423): 1.67 nM

COc1ccc(-c2cc3nccn3c(Nc3ncccc3C(N)=O)n2)cc1OC
IC50 (HT55): > 8000 nM
IC50 (BL-41): 1390 nM
IC50 (REH): 2250 nM
IC50 (SK-MEL-28): > 8000 nM
IC50 (HCC1806): > 8000 nM
IC50 (CAL-12T): 496 nM
IC50 (NUGC-3): > 8000 nM
IC50 (HTC-C3): > 8000 nM
IC50 (T98G): > 8000 nM
IC50 (IMR-5): 6080 nM
IC50 (NCI-H1563): > 8000 nM
IC50 (BHY): 2810 nM
IC50 (NCI-H460): 2460 nM
IC50 (GP5d): > 8000 nM
IC50 (RPMI-2650): 696 nM
IC50 (KP-N-YN): > 8000 nM
IC50 (TCC-SUP): > 8000 nM
IC50 (LCLC-103H cell line): 3080 nM
IC50 (NCI-H510A): > 8000 nM
IC50 (BT-20): > 8000 nM
IC50 (AGS): > 8000 nM
IC50 (VMRC-RCZ): 5580 nM
IC50 (MEL-HO): 2950 nM
IC50 (CMK): 682 nM
IC50 (NCI-H1993): > 8000 nM
IC50 (MEL-JUSO): 2740 nM
IC50 (PC-14): > 8000 nM
IC50 (HEC-1): > 8000 nM
IC50 (HCC38): > 8000 nM
IC50 (IM-9): > 8000 nM
IC50 (Hs-578T): > 8000 nM
IC50 (NCI-H727): 6150 nM
IC50 (MG-63): > 8000 nM
IC50 (MDA-MB-361): > 8000 nM
IC50 (EC-GI-10): > 8000 nM
IC50 (PANC-08-13): > 8000 nM
IC50 (KYSE-70 cell line): > 8000 nM
IC50 (Ca9-22): > 8000 nM
IC50 (G-401): 5750 nM
IC50 (NY): > 8000 nM
IC50 (M059J): 2840 nM
IC50 (DG-75): > 8000 nM
IC50 (HPAF-II): > 8000 nM
IC50 (HT-3): > 8000 nM
IC50 (HCC70): 1930 nM
IC50 (GAMG): > 8000 nM
IC50 (MeWo): > 8000 nM
IC50 (NCI-H524): > 8000 nM
IC50 (JEG-3): > 8000 nM
IC50 (MDA-MB-134-VI): > 8000 nM
IC50 (G-402): 6900 nM
IC50 (NCI-H522): > 8000 nM
IC50 (SW626): > 8000 nM
IC50 (SAS): > 8000 nM
IC50 (LC4-1): 5980 nM
IC50 (SW-620): 3310 nM
IC50 (EGI-1): > 8000 nM
IC50 (MKN-28): 4490 nM
IC50 (LK-2): > 8000 nM
IC50 (SNU-423): > 8000 nM
